Assay results from the supplement of paper PMC10307832.

Assays:
Experiment in all cases: relative viability (nuclei count vs DMSO), 5 days (fraction); higher = more cells survive
Dinaciclib + Bortezomib = compound: CCc1cnn2c(NCc3ccc[n+]([O-])c3)cc(N3CCCC[C@H]3CCO)nc12 [Dinaciclib] + CC(C)C[C@H](NC(=O)[C@H](Cc1ccccc1)NC(=O)c1cnccn1)B(O)O [Bortezomib] (partner 0.002 µM)
Procedure, shortened: (§1)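 Each reported value is a median over duplicate plates. It expresses relative viability: treated-well nuclei count divided by vehicle-well nuclei count. Lung cancer cell lines in 1536-well plates were dosed by pin tool a day after seeding, alone with one drug or with a fixed anchor-drug dose plus five library-drug doses (not always all listed) in √10 steps, and nuclei were counted after 5 days.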

Dinaciclib + Linsitinib = compound: CCc1cnn2c(NCc3ccc[n+]([O-])c3)cc(N3CCCC[C@H]3CCO)nc12 [Dinaciclib] + C[C@]1(O)C[C@@H](c2nc(-c3ccc4ccc(-c5ccccc5)nc4c3)c3c(N)nccn32)C1 [Linsitinib] (partner 1 µM)
Procedure, shortened: as §1

Dinaciclib + Phenformin = compound: CCc1cnn2c(NCc3ccc[n+]([O-])c3)cc(N3CCCC[C@H]3CCO)nc12 [Dinaciclib] + N=C(N)NC(=N)NCCc1ccccc1 [Phenformin] (partner 250 µM)
Procedure, shortened: as §1

Dinaciclib + AZD7762 = compound: CCc1cnn2c(NCc3ccc[n+]([O-])c3)cc(N3CCCC[C@H]3CCO)nc12 [Dinaciclib] + NC(=O)Nc1cc(-c2cccc(F)c2)sc1C(=O)N[C@H]1CCCNC1 [AZD7762] (partner 0.2 µM)
Procedure, shortened: as §1

Dinaciclib + Decitabine = compound: CCc1cnn2c(NCc3ccc[n+]([O-])c3)cc(N3CCCC[C@H]3CCO)nc12 [Dinaciclib] + Nc1ncn([C@H]2C[C@H](O)[C@@H](CO)O2)c(=O)n1 [Decitabine] (partner 2 µM)
Procedure, shortened: as §1

Row | Cell Line | relative viability (Dinaciclib + Bortezomib; first compound 0.009487 µM) | relative viability (Dinaciclib + Bortezomib; first compound 0.03 µM) | relative viability (Dinaciclib + Bortezomib; first compound 0.09487 µM) | relative viability (Dinaciclib + Bortezomib; first compound 0.3 µM) | relative viability (Dinaciclib + Linsitinib; first compound 0.009487 µM) | relative viability (Dinaciclib + Linsitinib; first compound 0.03 µM) | relative viability (Dinaciclib + Linsitinib; first compound 0.09487 µM) | relative viability (Dinaciclib + Linsitinib; first compound 0.3 µM) | relative viability (Dinaciclib + Phenformin; first compound 0.009487 µM) | relative viability (Dinaciclib + Phenformin; first compound 0.03 µM) | relative viability (Dinaciclib + Phenformin; first compound 0.09487 µM) | relative viability (Dinaciclib + Phenformin; first compound 0.3 µM) | relative viability (Dinaciclib + AZD7762; first compound 0.009487 µM) | relative viability (Dinaciclib + AZD7762; first compound 0.03 µM) | relative viability (Dinaciclib + AZD7762; first compound 0.09487 µM) | relative viability (Dinaciclib + AZD7762; first compound 0.3 µM) | relative viability (Dinaciclib + Decitabine; first compound 0.009487 µM) | relative viability (Dinaciclib + Decitabine; first compound 0.03 µM) | relative viability (Dinaciclib + Decitabine; first compound 0.09487 µM) | relative viability (Dinaciclib + Decitabine; first compound 0.3 µM)
1 | HOP-62 | 0.643 | 0.0795 | 0.0423 | 0.0609 | 1.01 | 0.203 | 0.0716 | 0.0565 | 0.54 | 0.299 | 0.0816 | 0.0886 | 0.706 | 0.225 | 0.0545 | 0.068 | 0.204 | 0.21 | 0.0932 | 0.0689
2 | LC-2-ad | 1.05 | 0.0825 | 0.0622 | 0.0691 | 0.745 | 0.0866 | 0.0684 | 0.0797 | 0.334 | 0.219 | 0.181 | 0.18 | 0.87 | 0.118 | 0.11 | 0.128 | 0.745 | 0.541 | 0.158 | 0.151
3 | LCLC-97TM1 | 0.0824 | 0.0484 | 0.0476 | 0.0667 | 0.168 | 0.12 | 0.126 | 0.107 | 0.391 | 0.257 | 0.153 | 0.129 | 0.385 | 0.0625 | 0.0497 | 0.0774 | 0.167 | 0.0798 | 0.0518 | 0.0627
4 | LCLC-103H | 1.04 | 0.998 | 0.451 | 0.108 | 1.13 | 0.934 | 0.18 | 0.172 | 0.292 | 0.327 | 0.11 | 0.0875 | 0.881 | 0.351 | 0.279 | 0.197 | 0.754 | 0.648 | 0.297 | 0.242
5 | LOU-NH91 | 0.4 | 0.345 | 0.287 | 0.281 | 0.94 | 0.467 | 0.236 | 0.245 | 0.645 | 0.249 | 0.208 | 0.151 | 0.7 | 0.296 | 0.252 | 0.272 | 0.642 | 0.434 | 0.269 | 0.271
6 | LU99A | 0.645 | 0.134 | 0.135 | 0.122 | 0.336 | 0.154 | 0.145 | 0.141 | 0.709 | 0.14 | 0.0878 | 0.132 | 0.322 | 0.11 | 0.106 | 0.115 | 0.793 | 0.145 | 0.13 | 0.149
7 | LXF-289 | 1.04 | 0.193 | 0.0851 | 0.0696 | 0.994 | 0.315 | 0.0869 | 0.071 | 0.538 | 0.229 | 0.0748 | 0.0626 | 1.18 | 0.453 | 0.0752 | 0.0836 | 0.356 | 0.293 | 0.109 | 0.0948
8 | NCI-H23 | 0.637 | 0.185 | 0.0983 | 0.106 | 0.508 | 0.142 | 0.105 | 0.109 | 0.807 | 0.31 | 0.114 | 0.116 | 0.246 | 0.125 | 0.107 | 0.0921 | 0.242 | 0.216 | 0.14 | 0.135
9 | NCI-H322M | 1.26 | 1.26 | 0.52 | 0.187 | 0.925 | 0.477 | 0.224 | 0.229 | 0.41 | 0.315 | 0.244 | 0.267 | 0.613 | 0.409 | 0.42 | 0.394 | 0.713 | 0.441 | 0.416 | 0.348
10 | NCI-H441 | 0.45 | 0.158 | 0.2 | 0.143 | 0.811 | 0.129 | 0.115 | 0.113 | 0.688 | 0.184 | 0.164 | 0.136 | 1.17 | 0.758 | 0.141 | 0.16 | 0.223 | 0.199 | 0.134 | 0.147
11 | NCI-H460 | 0.591 | 0.013 | 0.0102 | 0.0119 | 0.434 | 0.0071 | 0.0074 | 0.0155 | 0.296 | 0.0189 | 0.0192 | 0.0198 | 0.795 | 0.0353 | 0.0383 | 0.0328 | 0.232 | 0.0239 | 0.0139 | 0.0224
12 | NCI-H596 | 1.22 | 0.563 | 0.263 | 0.239 | 0.847 | 0.468 | 0.169 | 0.193 | 0.875 | 0.692 | 0.438 | 0.216 | 1.09 | 0.479 | 0.262 | 0.24 | 1.48 | 0.839 | 0.271 | 0.258
13 | NCI-H647 | 0.208 | 0.0668 | 0.0726 | 0.0623 | 0.674 | 0.0709 | 0.0658 | 0.0602 | 0.302 | 0.0795 | 0.059 | 0.0723 | 0.274 | 0.0458 | 0.0377 | 0.0491 | 0.296 | 0.131 | 0.0349 | 0.0773
14 | NCI-H650 | 0.295 | 0.132 | 0.129 | 0.123 | 0.481 | 0.161 | 0.139 | 0.124 | 0.407 | 0.201 | 0.159 | 0.154 | 1.08 | 0.153 | 0.148 | 0.173 | 0.308 | 0.204 | 0.118 | 0.124
